# What was measured:
# [1] = Nitric oxide (NO) release, Berkeley nitric oxide test strips (Evaluation Method Ai); format: physicochemical; settings: 37° C.; for onset of release of NO from the coating / time at which steady state of NO release / nitrite anion concentration is reached: coating of compound alone on ePTFE film, PBS 10 mM with 100 μM EDTA; for delayed release of NO from the coating / time at which steady state concentration of nitrite anion is reached: coating with VDF-HFP fluoropolymer on ePTFE film, PBS
# Protocol: The ability of a chemical entity as described herein, or surface having a coating comprising a chemical entity as described herein, to release nitric oxide (NO) is assessed using commercially available Berkely nitric oxide test strips (“Berkeley Life Nitric Oxide Saliva Test Strips”). Instructions for use for such test strips are provided with the packaging of the Berkely nitric oxide test strips, and additionally are described in WO2013/023217A1 and WO2014/039794A2 (incorporated herein by reference).The test strips provide a semi-quantitative measure of NO-derived analytes (primarily aqueous nitrite anion) rather than NO itself, because as is known to the art (Ignarro et al., 1993), aqueous NO has a very short half-life of only seconds, whereas aqueous nitrite anion (which derives from aqueous NO) has a half-life of several hours. As such, the nitrite anion is an appropriate surrogate to measure aqueous NO concentrations. The test strips comprise a nitrite detection pad containing dry chemical reagents responsive to different nitric oxide analytes, thereby, indicating concentrations of nitric oxide. The test strips are capable of detecting a concentration range of the nitric oxide analyte from 0 to 400 μmol/L nitrite with visibly distinct intensities of colorimetric sub-ranges expressed as a red colour (i.e., approximately 700 nm wavelength) of increasing intensity, qualitatively corresponding to micromolarity, specifically, but not limited to: 0 μM, 1 μM to 25 μM, 25 μM to 100 μM, 100 μM to 200 μM, 200 μM to 350 μM, and greater than 400 μM nitrite.
# The surface having a coating to be assessed is submerged in a test solution of PBS, 10.0 mM, pH 7.4, with 100 μM EDTA. NO concentration is assessed at given timepoints by dipping the test strip in the solution. After 5 seconds, the test strip is removed, the strip is folded over and the sample pad is gently pressed against the test pad and held for 10 seconds. The ends are separated and compared to the Berkeley Test Nitric Oxide Scale, where the visibly distinct colorimetric sub-ranges comprise 6 subjective levels of intensity of red wavelengths (i.e., approximately 700 nm wavelength), corresponding to 0 μM, 25 μM, 100 μM, 200 μM, 350 μM, and 400 μM of nitric oxide-derived analytes, depending upon the qualitative intensity of red subjectively observed by a user. […] As shown in the Examples below, because each strip is assigned to one of the 6 subjective intensity levels (the sixth being no response), the resulting NO release plot has discrete jumps rather than a continuous curve, although in practice continuous release is expected to be occurring.
# In separate experiments, chloroform solutions of S-nitrosothiol-containing compound 16 (Example 19) and compound 17 (Example 20) were deposited dropwise onto ePTFE films secured on embroidery hoops, allowing the solvents to evaporate as the solutions were deposited. Once the solvents had evaporated and the resulting coatings were dry, 10 mL of a PBS buffer solution comprising 10 mM phosphate buffered saline with 100 μM EDTA, was poured over the individual coated films in round, polyethylene containers with screw-cap lids and placed in a 37° C. water bath. The PBS buffer solutions were tested periodically for NO release according to Evaluation Method Ai. The NO release profile for the film coated with compound 16 is shown in FIG. 4, and for the film coated with compound 17, in FIG. 5.
# In separate experiments, acetone solutions of 50 mg of the S-nitrosothiol-containing compound 16 (Example 19), compound 18 (Example 22), and copolymer 20 (Example 23) were added to individual mixtures of 200 mg of VDF-HFP fluoropolymer in 10 mL of acetone. The green mixtures were then poured onto 3-inch disks of ePTFE films secured on embroidery hoops, and the solvents evaporated under a stream of argon. […]
# [2] = as above; format: physicochemical; settings: PBS, 37° C.
# [3] = Example 30, FIG. 12: silicone coating on ePTFE film
# [4] = coating with VDF-HFP fluoropolymer on Pebax nylon film
# [5] = coating with VDF-HFP fluoropolymer on ePE film
# [6] = coating with VDF-HFP fluoropolymer on stainless steel foil
delayed release of NO from the coating [1] [days],time at which steady state concentration of nitrite anion is reached [1] [days],"onset of release of NO from the coating [2, 3]","time at which steady state concentration of nitrite anion is reached [2, 3] [days]","delayed release of NO from the coating [2, 4] [days]","time at which steady state concentration of nitrite anion is reached [2, 4] [days]","delayed release of NO from the coating [2, 5] [days]","time at which steady state concentration of nitrite anion is reached [2, 5] [days]","delayed release of NO from the coating [2, 6] [days]","time at which steady state concentration of nitrite anion is reached [2, 6] [days]",SMILES,onset of release of NO from the coating [1],time at which steady state of NO release / nitrite anion concentration is reached [1] [days]
2,8,,,,,,,,,CC(C)(SN=O)C(NC(=O)CCCCC(=O)NC(C(=O)NCc1ccccc1)C(C)(C)SN=O)C(=O)NCc1ccccc1 (stereo not shown) [Compound 16],immediate release,5
,,,,,,,,,,"CC(C)(SN=O)C(NC(=O)CCCCC(=O)NC(C(=O)Nc1ccccc1)C(C)(C)SN=O)C(=O)Nc1ccccc1 (stereo not shown) [Compound 17, S,S′-((adipoylbis(azanediyl))bis(2-methyl-4-oxo-4-(phenylamino)butane-3,2-diyl)) dinitrothioite]",immediate release,7
2,12,immediate first release,7,4,13,2,15,9,14,"CC(C)(SN=O)C(NC(=O)c1cc(C(=O)NC(C(=O)NCc2ccccc2)C(C)(C)SN=O)cc(C(=O)NC(C(=O)NCc2ccccc2)C(C)(C)SN=O)c1)C(=O)NCc1ccccc1 (stereo not shown) [Compound 18, S,S′,S″-(((benzene-1,3,5-tricarbonyl)tris(azanediyl))tris(4-(benzylamino)-2-methyl-4-oxobutane-3,2-diyl)) trinitrothioite]",,

# Reference: US20250346782A1 (W. L. Gore & Associates, Inc., priority 2022, published 2025)
